In patent US5859032A, “Pyridine derivative, anti-ulcer drug, and antibacterial drug” (priority 1996, dated 1999):

Key:
[1] = system: isolated gastric fundic gland; assay: CAP: Acid Secretion Inhibition Test In Vitro ([14C]-aminopyrine uptake test); assay type: cell-based, Japanese White rabbit; conditions: Oryctolagus cuniculus, 40 min, 10^-5 M, histamine 10^-5 M, 37° C., read-out: CAP: acid secretion inhibitory rate
Procedure: CAP: Acid Secretion Inhibition Test In Vitro
The acid secretion inhibitory activity in a cell level is studied. It can also be used for studying the mechanism of the effect. […]
ii-a) Preparation of isolated gastric fundus gland suspension
First, an isolated gastric fundic gland sample was prepared. Namely, a male Japanese White rabbit (2.5 to 3 kg) was anesthetized to death with Nembutal™ and then the abdomen was incised. Immediately thereafter, the stomach was removed and, after its pyloric and cardiac antrum were severed, incised along its greater curvature into two sheets. The gastric contents adhering to the mucosal surface was washed out with ice-cooled PBS (-) and then carefully washed therein. The gastric wall was spread on a cork board with its mucosal surface facing up and the feed and mucus thereon were completely removed with sterile gauze. The mucosa was separated therefrom by a spatula and then collected in ice-cooled PBS (-). After being washed twice with PBS (-), the mucosa was minced into 2-3 mm^3 pieces by scissors. These pieces were further washed twice with a nutrient solution. The nutrient solution comprises 132.4 mM of NaCl, 5.4 mM of KCl, 5 mM of Na2 HPO4. 12H2 O, 1 mM of NaH2 PO4. 2H2 O, 1.2 mM of MgSO4, 1 mM of CaCl 2, 25 mM of HEPES, 2 mg/ml of glucose, and 1 mg/ml of BSA. Into 70 ml of the nutrient solution containing 1 mg/ml of collagenase, minced mucosal pieces were dispersed and intensely stirred in a conical flask with a stirrer at 37° C. for 40 to 60 minutes. During this period, 100% O2 was sprayed on the nutrient solution surface and the pH was appropriately measured such that it was immediately adjusted to pH 7.4, when the value was therebelow, with a base. The nutrient solution was added to the reaction solution so as to attain the total amount of about 200 ml. After being filtered through a mesh, the suspension was divisionally introduced into 50 ml centrifuge tubes and left for 15 minutes such that gastric fundic gland was deposited. The supernatant was repeatedly removed by an aspirator, dispersed in the nutrient solution, and then left such that the gastric fundic gland was washed three times. At this time, without using a pipette, the suspension was alternately introduced into two centrifuge tubes so as to effect dispersion. The number of cells was counted under microscope and adjusted to 1.6×10^6 cells/ml. […]
ii-b) [^14 C]-aminopyrine uptake test
Then, [^14 C]-aminopyrine uptake test was performed. After an Eppendorf tube was weighed, 10 μl (final concentration: 10^-5 M) of histamine dissolved in the above-mentioned nutrient solution, 10 μl (final concentration: 10^-5 M) of the test compound dissolved in DMSO, and 10 μl (final concentration: 0.05 μCi/ml) of [^14 C]-aminopyrine diluted with the nutrient solution were introduced therein and then 970 μl of the isolated gastric fundic gland suspension prepared above was added thereto. Subsequently, this mixture was shaken at 37° C. for 40 minutes at 125 cycles/minute. After being centrifuged for 30 minutes, 200 μl of its supernatant was collected into a mini-vial, while the rest was removed by an aspirator. The gland pellet was completely dried as the tube with its lid being opened was kept for one night in a drying oven at 80° C. and then the lid was closed and the weight was determined at room temperature. Then 100 μl of 1N KOH was added thereto and the tube with its lid being closed was treated at 60° C. for 1 to 2 hours so as to dissolve the pellet. Then, the contents thereof were transferred to a mini-vial. Into the mini-vial containing the supernatant or gland pellet, 4 ml of Atomlite™ was added and then the radioactivity was measured by a liquid scintillation counter. Here, after the radioactivity of the gland pellet was corrected by using a sample in which 20 mM of NaSCN was added so as to cancel the hydrogen ion concentration gradient, the integration ratio of aminopyrine specifically trapped by the gland pellet was calculated. […]

[2] = MTT: Cell Damaging and Protecting Effect Test; assay type: cell-based, Japanese White rabbit; conditions: rabbit, gastric mucosa cells, 10^-4 M, 37° C., smaller value is better, read-out: MTT: cell damaging rate
From the text: MTT: Cell Damaging and Protecting Effect Test
It is confirmed that there is no toxicity in cell level. Those having a toxicity in cell level are inappropriate as an anti-ulcer drug.
A male Japanese White rabbit (2.5 to 3 kg) was anesthetized to death by Nembutal™ and, immediately thereafter, its stomach was removed. The greater curvature of the stomach was incised so as to remove the stomach contents therefrom. After the mucosal surface was washed with HBSS (Hanks' Balanced Salt Solution), the stomach in ice-cooled HBSS was transferred to a laboratory. Then, after the pyloric antrum was removed, the gastric corpus mucosa was separated by a spatula and then minced into 2 to 3 mm^3 pieces in BME (Basal Medium Eagle). Thereafter, these pieces were shaken at 120 to 130 cycles/minute for 15 minutes at 37° C. in BME 60 ml containing 280 U/ml of dispase and 30 to 50 U/ml of collagenase. Here, the concentration of collagenase was appropriately changed for each lot in view of the state of cells. The pieces were washed twice with EBSS (Earle's Balanced Salt Solution) containing 1 mM of EDTA and then shaken in MEM (Minimum Essential Medium) containing 1 mM of EDTA at 37° C. for 5 minutes. Subsequently, they were shaken in the dispase and collagenase having the same concentrations as those mentioned above for 15 minutes so as to remove the supernatant and then further shaken at 37° C. for 50 to 60 minutes at 120 to 130 cycles/minute. Then, after being washed twice with HBSS, Ham F12 containing 2% of Ultrocer GT™ was used to attain the concentration of 1×10^6 cells/ml. Thus formed suspension was dispensed in each well of a 96-well plate by 200 μl. The plate was incubated in the atmosphere composed of 5% CO2 and 95% air at 37° C. for three days so as to attain a confluent state and then subjected to MTT assay.
The sample compound was dissolved in DMSO so as to attain a concentration of 10^-2 M and then diluted with HBSS containing 2% of Ultrocer G™ so as to attain a final concentration of 10^-4 M. To each group, which 8 wells were used for, 10 μl of MTT reagent was added immediately after 100 μl of the medium in each well was exchanged for same volume of the resulting solution of the sample compound. After being incubated in an atmosphere composed of 5% CO2 and 95% air at 37° C. for 4 hours, thus formed solution was centrifuged and then its supernatant was discarded. Subsequently, 100 μl of 100% ethanol was added to the residue so as to dissolve MTT formazan. Then, the absorbance (OD: 570 to 630) was measured by a microplate reader. This method utilizes a phenomenon in which MTT is changed to MTT formazan only by mitochondria of living cells so as to change color.
The cell damaging or cell protecting effect of the sample compound at the final concentration of 10^-4 M was expressed as cell damaging rate (%) as follows:
cell damaging rate (%)=(1-(absorbance in sample group/absorbance in control
Accordingly, the smaller value is better in the cell damaging rate.

mice = conditions: mouse, in vivo
Procedure: AT: Single Dose Toxicity Pretest
Male Slc:ICR mice (5-week-old) were used. Each group has 3 to 5 mice and each mouse was fasted, but allowed free access to water, for 4 to 5 hours from 9 a.m. in the test day. Then, 2,000 mg/10 ml/kg of the sample compound dissolved or suspended in an aqueous solution of 0.5% sodium carboxymethyl cellulose was orally administered thereto. To a control, only the vehicle was administered. […] The body weight was measured before and after the fasting as well as at the same time everyday. The dead animals were immediately subjected to autopsy and their organs were observed microscopically. Also, the living animals were sacrificed with ether or carbon dioxide one week after the administration and then their organs were observed microscopically.
The toxicity at the single dose of 2,000 mg/kg of the sample compound was expressed as being classified into 5 levels.
5: Mortality rate is 0%; no toxicity is found at all both in behavior and organs.
4: Mortality rate is 0%; while no toxicity is found in organs, slight toxicity is observed in behavior and body weight increase.
3: While there is a dead animal (though not all the animals are dead), no toxicity is found in organs.
2: Regardless of whether there is a dead animal or not, toxicity is found in organs.
1: All the animals are dead.

Row | SMILES | inhibition at 10 µM [1] | cytotoxicity at 4 h, 100 µM [2] | AT: toxicity at the single dose (5 levels) (mice)
1 | CC(C)=CCC/C(C)=C/COc1ccc(C(=O)NCCNc2cccnc2)cc1 [Example 7, 3-[2-(4-geranyloxybenzoylamino)ethylamino]pyridine] | 100% | 48% | 
2 | CC(C)=CCC/C(C)=C/COc1ccc(C(=O)NCc2ccncc2)cc1 [Example 3, 4-(4-geranyloxybenzoylaminomethyl)pyridine] | 99% | 16% | 5
3 | CC(C)=CCC/C(C)=C/COc1ccc(C(=O)NCC(=O)Nc2ccccn2)cc1 [Example 13, 2-[2-(4-geranyloxybenzoylamino)acetylamino]pyridine] | 31% | -36% | 5
4 | CC(C)=CCC/C(C)=C/COc1ccc(C(=O)Nc2cccnc2)cc1 [Example 4, 3-(4-geranyloxybenzoylamino)pyridine] | 44% | 6% | 
5 | CC(C)=CCC/C(C)=C/COc1ccc(C(=O)NCCc2ccncc2)cc1 [Example 2, 4-[2-(4-geranyloxybenzoylamino)ethyl]pyridine] | 99% | 7% | 5
6 | CC(C)=CCC/C(C)=C/COc1ccc(C(=O)NCCc2ccccn2)cc1 [Example 1, 2-[2-(4-geranyloxybenzoylamino)ethyl]pyridine] | 97% | 8% | 5
7 | COc1ccc(NCCNC(=O)c2ccc(OC/C=C(\C)CCC=C(C)C)cc2)nc1 [Example 8, 2-[2-(4-geranyloxybenzoylamino)ethylamino]-5-methoxypyridine] | 97% | -45% | 5
8 | COc1ccc(SCCNC(=O)c2ccc(OC/C=C(\C)CCC=C(C)C)cc2)nc1 [Example 11, 2-[2-(4-geranyloxybenzoylamino)ethylthio]-5-methoxypyridine] | 55% | -34% | 5
9 | CC(C)=CCOc1ccc(OCC=C(C)C)c(C(=O)NCCc2ccncc2)c1 [Example 6, 4-[2-(2,5-diprenyloxybenzoylamino)ethyl]pyridine] | 100% | -94% | 
10 | CC(C)=CCC/C(C)=C/COc1ccc(C(=O)NCCNc2cc(C)cc(C)n2)cc1 [Example 10, 2,4-dimethyl-6-[2-(4-geranyloxybenzoylamino)ethylamino]pyridine] | 101% | 65% | 4
